Nine compounds from patent publication US9670227B2, “Thienopyrimidine derivatives, a process for their preparation and pharmaceutical compositions containing them” (LES LABORATOIRES SERVIER, priority 2013, dated 2017) can be followed below.

The structures appear in SMILES notation. Read-outs that look alike come from different tables or passages of the source.

One assay deals with Mcl-1 protein (UniProtKB primary accession number: Q07820) (Homo sapiens, UniProt Q07820). Briefly: Inhibition of Mcl-1 by fluorescence polarisation, Method 1. The settings on record: read-out: IC50 (M) Mcl-1 FP. In kind it is binding. In a few lines: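 Compounds were tested as 11-point serial dilutions at 5% final DMSO against 5 nM Mcl-1 with 1 nM fluorescein-labelled ligand in 10 mM HEPES, 150 mM NaCl, 0.05% Tween 20, pH 7.4. Relative binding potency was read by fluorescence polarisation.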
Mcl-1 protein, sequence (Q07820 whole entry): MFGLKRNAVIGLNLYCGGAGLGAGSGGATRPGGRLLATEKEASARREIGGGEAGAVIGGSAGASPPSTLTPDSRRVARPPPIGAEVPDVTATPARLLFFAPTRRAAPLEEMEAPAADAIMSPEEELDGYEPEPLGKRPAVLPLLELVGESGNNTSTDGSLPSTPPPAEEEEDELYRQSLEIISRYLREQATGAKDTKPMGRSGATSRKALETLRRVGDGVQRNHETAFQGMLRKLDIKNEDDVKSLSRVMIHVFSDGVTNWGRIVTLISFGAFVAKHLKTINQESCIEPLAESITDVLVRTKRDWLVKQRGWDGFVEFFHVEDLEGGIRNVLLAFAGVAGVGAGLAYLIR

Assay [1] deals with H929 multiple myeloma tumour line. Description: In vitro cytotoxicity, Microculture Tetrazolium Assay. Particulars: H929 cells, 48 hours exposure, MTT, read-out: IC50 (μM) MTT H929. The assay is classed as cell-based. Here is the method:
The cytotoxicity studies were carried out on the H929 multiple myeloma tumour line.
The cells are distributed onto microplates and exposed to the test compounds for 48 hours.

In assay [2] the test system is AMO-1 multiple myeloma cells. Description: Quantification of the cleaved form of PARP in vivo (MSD ELISA, tumour lysates). On the set-up: species or system mice (SCID strain). Particulars: activation factor: cleaved PARP in treated mice / control mice, AMO-1 xenograft in SCID mice, intraveinous or oral routes. In a few lines: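 SCID mice bearing subcutaneous AMO-1 xenografts (1.10^7 cells) dosed intravenously or orally 12 to 14 days after grafting. Cleaved PARP in tumour lysates measured by MSD ELISA. Reported as activation factor, the ratio of treated to control cleaved PARP.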
(In an ELISA, binding on a coated surface is turned into a signal by an enzyme label.)

[3] abbreviates: fluorescence polarisation test, Method 2 values are underlined in the patent (underlining not visible here).
[4] abbreviates: fluorescence polarisation, Method 1, or Method 2.

The IC50 is the concentration at which inhibition is half-maximal. In the case of `CCOc1nccc(COc2ccccc2CC(Oc2ncnc3sc(-c4ccc(F)cc4)c(-c4ccc(OCCN5CCN(C)CC5)c(Cl)c4C)c23)C(=O)O)n1` [Example 57, (2R)-2-{[(5Sa)-5-{3-chloro-2-methyl-4-[2-(4-methylpiperazin-1-yl)ethoxy]phenyl}-6-(4-fluorophenyl)thieno[2,3-d]pyrimidin-4-yl]oxy}-3-{2-[(2-ethoxypyrimidin-4-yl)methoxy]phenyl}propanoic acid], the IC50 on Mcl-1 protein (setting [3]) turned out to be 5e-09 M; in assay [1] (Homo sapiens, NCI-H929, 48 h), 0.008 µM. In assay [2], the PARP fold is listed as 198.3 fold.
In the same order, the values of `COc1cc(COc2ccccc2CC(Oc2ncnc3sc(-c4ccc(F)o4)c(-c4ccc(OCCN5CCN(C)CC5)c(Cl)c4C)c23)C(=O)O)ccn1` [Example 168, (2R)-2-{[(5Sa)-5-{3-chloro-2-methyl-4-[2-(4-methylpiperazin-1-yl)ethoxy]phenyl}-6-(5-fluorofuran-2-yl)thieno[2,3-d]pyrimidin-4-yl]oxy}-3-{2-[(2-methoxypyridin-4-yl)methoxy]phenyl}propanoic acid] are 2.8e-09 M, 0.025 µM and 179.2 fold.
In the case of `COc1ccccc1-c1nccc(COc2ccccc2CC(Oc2ncnc3sc(C#CCCc4ccccc4)c(-c4ccc(OCCN5CCN(C)CC5)c(Cl)c4C)c23)C(=O)O)n1` [Example 781, (2R)-2-{[(5Sa)-5-{3-chloro-2-methyl-4-[2-(4-methylpiperazin-1-yl)ethoxy]phenyl}-6-(4-phenylbut-1-yn-1-yl)thieno[2,3-d]pyrimidin-4-yl]oxy}-3-(2-{[2-(2-methoxyphenyl)pyrimidin-4-yl]methoxy}phenyl)propanoic acid], the IC50 at Mcl-1 protein (setting [4]) amounted to 9.48e-10 M; in assay [1] (Homo sapiens, NCI-H929, 48 h) it was 0.033 µM. In assay [2], this compound gave a PARP fold of 113.3 fold.
As for `CCc1c(-c2c(-c3ccc(F)cc3)sc3ncnc(O[C@H](Cc4ccccc4OCc4ccnc(-c5ccccc5OC)n4)C(=O)O)c23)ccc(OCCN2CCN(C)CC2)c1Cl` [Example 741, (2R)-2-{[(5Sa)-5-{3-chloro-2-ethyl-4-[2-(4-methylpiperazin-1-yl)ethoxy]phenyl}-6-(4-fluorophenyl)thieno[2,3-d]pyrimidin-4-yl]oxy}-3-(2-{[2-(2-methoxyphenyl)pyrimidin-4-yl]methoxy}phenyl)propanoic acid], the values for the IC50 (at Mcl-1 protein (setting [4]); in assay [1]) were 9.48e-10 M and 0.002 µM, respectively. Besides, in assay [2], the PARP fold is listed as 244 fold.
With `COCc1nccc(COc2ccccc2CC(Oc2ncnc3sc(-c4ccc(F)cc4)c(-c4ccc(OCCN5CCN(C)CC5)c(Cl)c4C)c23)C(=O)O)n1` [Example 45, (2R)-2-{[(5Sa)-5-{3-chloro-2-methyl-4-[2-(4-methylpiperazin-1-yl)ethoxy]phenyl}-6-(4-fluorophenyl)thieno[2,3-d]pyrimidin-4-yl]oxy}-3-(2-{[2-(methoxymethyl)pyrimidin-4-yl]methoxy}phenyl)propanoic acid], the IC50 on Mcl-1 protein (setting [3]) came to 6.7e-09 M; in assay [1] (Homo sapiens, NCI-H929, 48 h), 0.009 µM. This compound also displayed a PARP fold in assay [2] of 194.3 fold.
For `Cc1cnccc1-c1nccc(COc2ccccc2CC(Oc2ncnc3sc(-c4ccc(F)o4)c(-c4ccc(OCCN5CCN(C)CC5)c(Cl)c4C)c23)C(=O)O)n1` [Example 198, (2R)-2-{[(5Sa)-5-{3-chloro-2-methyl-4-[2-(4-methylpiperazin-1-yl)ethoxy]phenyl}-6-(5-fluorofuran-2-yl)thieno[2,3-d]pyrimidin-4-yl]oxy}-3-(2-{[2-(3-methylpyridin-4-yl)pyrimidin-4-yl]methoxy}phenyl)propanoic acid], in that order: 7.7e-09 M, 0.002 µM and 280 fold.
For `COC(=O)C(Cc1ccccc1OCc1ccnc(-c2ccccc2OC)n1)Oc1ncnc2sc(-c3ccc(F)cc3)c(-c3ccc(OCCN4CCN(C)CC4)c(Cl)c3C)c12` [Example 787, methyl (2R)-2-{[(5Sa)-5-{3-chloro-2-methyl-4-[2-(4-methylpiperazin-1-yl)ethoxy]phenyl}-6-(4-fluorophenyl)thieno[2,3-d]pyrimidin-4-yl]oxy}-3-(2-{[2-(2-methoxyphenyl)pyrimidin-4-yl]methoxy}phenyl)propanoate], the IC50 is 4.71e-07 M at Mcl-1 protein (setting [4]) and 0.245 µM in assay [1] (Homo sapiens, NCI-H929, 48 h). The same compound came in with a PARP fold in assay [2] of 131.5 fold.
In the same order, the values of `Cc1c(-c2c(-c3ccc(F)cc3)sc3ncnc(OC(Cc4ccccc4OCc4ccnc(-c5ccccc5OC(C)C)n4)C(=O)O)c23)ccc(OCCN2CCN(C)CC2)c1Cl` [Example 723, (2R)-2-{[(5Sa)-5-{3-chloro-2-methyl-4-[2-(4-methylpiperazin-1-yl)ethoxy]phenyl}-6-(4-fluorophenyl)thieno[2,3-d]pyrimidin-4-yl]oxy}-3-[2-({2-[2-(propan-2-yloxy)phenyl]pyrimidin-4-yl}methoxy)phenyl]propanoic acid] are 1.18e-09 M, 0.004 µM and 191.2 fold.
For the compound `Cc1c(-c2c(-c3ccc(F)cc3)sc3ncnc(OC(Cc4ccccc4OCc4ccnc(-n5cccn5)n4)C(=O)O)c23)ccc(OCCN2CCN(C)CC2)c1Cl` [Example 49, (2R)-2-{[(5Sa)-5-{3-chloro-2-methyl-4-[2-(4-methylpiperazin-1-yl)ethoxy]phenyl}-6-(4-fluorophenyl)thieno[2,3-d]pyrimidin-4-yl]oxy}-3-(2-{[2-(1H-pyrazol-1-yl)pyrimidin-4-yl]methoxy}phenyl)propanoic acid], the IC50 on Mcl-1 protein (setting [3]) is 2.5e-09 M; in assay [1] (Homo sapiens, NCI-H929, 48 h) it was 0.012 µM. Also, the PARP fold in assay [2] is 180.5 fold.
